Common to all, as to assay: G' assay (10 uM PL peptide), results of TABLE 7 and TABLE 12
Assay type in all cases: binding

The target in test [1] is T1, PDZ protein (GST-PDZ fusion) (Homo sapiens, UniProt Q6P0Q8).
T1 construct: made in house; host or cells: E. coli (DH5alpha, BL21 or JM109)
The method, boiled down: (§1)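 Biotinylated PL peptides at 10 uM (vs 20 uM in G^0 assay) bound to GST-PDZ fusions; PDZ protein at 5 ug/ml unless another concentration listed. Bound peptide read as A450 nm, classified 0–5 (0 = A450 0; 5 = A450 >4 repeated).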

Test [2] deals with T2, PDZ protein (GST-PDZ fusion) (Homo sapiens, UniProt Q02410).
T2 construct: made in house; host or cells: E. coli (DH5alpha, BL21 or JM109)
T2 sequence (Q02410 1-837): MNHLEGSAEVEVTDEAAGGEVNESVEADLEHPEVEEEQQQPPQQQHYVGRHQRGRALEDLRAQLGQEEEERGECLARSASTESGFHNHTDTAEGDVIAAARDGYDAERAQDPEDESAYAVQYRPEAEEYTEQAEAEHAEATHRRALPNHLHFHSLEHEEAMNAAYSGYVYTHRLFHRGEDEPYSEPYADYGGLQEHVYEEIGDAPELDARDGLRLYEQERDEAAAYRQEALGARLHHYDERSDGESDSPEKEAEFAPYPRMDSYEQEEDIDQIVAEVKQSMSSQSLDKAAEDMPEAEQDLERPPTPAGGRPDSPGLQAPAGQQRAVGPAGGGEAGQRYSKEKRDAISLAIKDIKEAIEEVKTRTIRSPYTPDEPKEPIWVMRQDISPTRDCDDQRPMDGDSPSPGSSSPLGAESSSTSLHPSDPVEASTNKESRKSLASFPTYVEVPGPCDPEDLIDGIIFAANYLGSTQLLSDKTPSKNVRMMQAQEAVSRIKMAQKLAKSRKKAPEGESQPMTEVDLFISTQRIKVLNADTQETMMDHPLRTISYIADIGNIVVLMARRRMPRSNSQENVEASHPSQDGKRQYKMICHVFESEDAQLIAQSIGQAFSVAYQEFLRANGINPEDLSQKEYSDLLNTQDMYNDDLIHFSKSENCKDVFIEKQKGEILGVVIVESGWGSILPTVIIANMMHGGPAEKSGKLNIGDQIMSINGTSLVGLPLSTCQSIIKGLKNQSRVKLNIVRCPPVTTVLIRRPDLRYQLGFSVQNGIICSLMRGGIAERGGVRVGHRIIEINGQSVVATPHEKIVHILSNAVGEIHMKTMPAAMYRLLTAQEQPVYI
Put shortly: as §1

For test [3], the target named is T3, PDZ protein (GST-PDZ fusion) (Homo sapiens, UniProt Q96JH8).
T3 construct: made in house; host or cells: E. coli (DH5alpha, BL21 or JM109)
T3 sequence (Q96JH8 1-1075): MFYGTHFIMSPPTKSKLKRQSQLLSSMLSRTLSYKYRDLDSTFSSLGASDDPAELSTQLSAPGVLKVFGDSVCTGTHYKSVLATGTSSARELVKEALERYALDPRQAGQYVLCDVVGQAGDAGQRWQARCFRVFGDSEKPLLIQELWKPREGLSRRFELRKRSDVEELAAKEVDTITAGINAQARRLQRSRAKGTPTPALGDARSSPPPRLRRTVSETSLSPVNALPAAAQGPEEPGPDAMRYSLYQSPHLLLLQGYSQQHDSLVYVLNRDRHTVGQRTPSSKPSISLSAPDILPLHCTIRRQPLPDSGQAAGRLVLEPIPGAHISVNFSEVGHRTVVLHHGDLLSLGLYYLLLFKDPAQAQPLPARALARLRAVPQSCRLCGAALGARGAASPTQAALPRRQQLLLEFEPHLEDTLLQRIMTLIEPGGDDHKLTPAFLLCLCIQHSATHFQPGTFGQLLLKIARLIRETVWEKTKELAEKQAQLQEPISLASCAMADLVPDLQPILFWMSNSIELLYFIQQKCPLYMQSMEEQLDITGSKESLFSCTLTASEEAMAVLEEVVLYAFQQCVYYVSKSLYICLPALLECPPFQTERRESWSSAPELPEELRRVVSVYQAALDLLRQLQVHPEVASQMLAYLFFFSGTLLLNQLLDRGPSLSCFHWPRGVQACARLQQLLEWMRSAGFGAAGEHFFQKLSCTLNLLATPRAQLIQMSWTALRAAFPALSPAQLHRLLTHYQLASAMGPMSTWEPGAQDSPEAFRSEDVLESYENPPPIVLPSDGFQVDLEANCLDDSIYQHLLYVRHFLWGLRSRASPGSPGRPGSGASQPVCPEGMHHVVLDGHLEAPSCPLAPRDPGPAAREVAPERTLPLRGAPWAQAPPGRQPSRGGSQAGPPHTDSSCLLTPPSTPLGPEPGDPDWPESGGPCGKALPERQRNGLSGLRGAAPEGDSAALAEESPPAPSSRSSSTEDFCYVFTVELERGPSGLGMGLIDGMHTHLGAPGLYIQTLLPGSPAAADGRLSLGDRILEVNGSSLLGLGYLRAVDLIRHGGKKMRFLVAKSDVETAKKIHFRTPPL
The following applies: PDZ FLJ 10324, PDZ Domain 1. The method, boiled down:
as §1

[4] abbreviates: PDZ KIAA807, PDZ Domain not given.

Ends that are not written are not given here. Peptide text beside a SMILES is read from it. * marks the point of attachment. Biotin = O=C1N[C@H]2[C@H](CS[C@H]2CCCCC(=O)*)N1

T1 sequence (Q6P0Q8 whole entry, the tested form may be a part): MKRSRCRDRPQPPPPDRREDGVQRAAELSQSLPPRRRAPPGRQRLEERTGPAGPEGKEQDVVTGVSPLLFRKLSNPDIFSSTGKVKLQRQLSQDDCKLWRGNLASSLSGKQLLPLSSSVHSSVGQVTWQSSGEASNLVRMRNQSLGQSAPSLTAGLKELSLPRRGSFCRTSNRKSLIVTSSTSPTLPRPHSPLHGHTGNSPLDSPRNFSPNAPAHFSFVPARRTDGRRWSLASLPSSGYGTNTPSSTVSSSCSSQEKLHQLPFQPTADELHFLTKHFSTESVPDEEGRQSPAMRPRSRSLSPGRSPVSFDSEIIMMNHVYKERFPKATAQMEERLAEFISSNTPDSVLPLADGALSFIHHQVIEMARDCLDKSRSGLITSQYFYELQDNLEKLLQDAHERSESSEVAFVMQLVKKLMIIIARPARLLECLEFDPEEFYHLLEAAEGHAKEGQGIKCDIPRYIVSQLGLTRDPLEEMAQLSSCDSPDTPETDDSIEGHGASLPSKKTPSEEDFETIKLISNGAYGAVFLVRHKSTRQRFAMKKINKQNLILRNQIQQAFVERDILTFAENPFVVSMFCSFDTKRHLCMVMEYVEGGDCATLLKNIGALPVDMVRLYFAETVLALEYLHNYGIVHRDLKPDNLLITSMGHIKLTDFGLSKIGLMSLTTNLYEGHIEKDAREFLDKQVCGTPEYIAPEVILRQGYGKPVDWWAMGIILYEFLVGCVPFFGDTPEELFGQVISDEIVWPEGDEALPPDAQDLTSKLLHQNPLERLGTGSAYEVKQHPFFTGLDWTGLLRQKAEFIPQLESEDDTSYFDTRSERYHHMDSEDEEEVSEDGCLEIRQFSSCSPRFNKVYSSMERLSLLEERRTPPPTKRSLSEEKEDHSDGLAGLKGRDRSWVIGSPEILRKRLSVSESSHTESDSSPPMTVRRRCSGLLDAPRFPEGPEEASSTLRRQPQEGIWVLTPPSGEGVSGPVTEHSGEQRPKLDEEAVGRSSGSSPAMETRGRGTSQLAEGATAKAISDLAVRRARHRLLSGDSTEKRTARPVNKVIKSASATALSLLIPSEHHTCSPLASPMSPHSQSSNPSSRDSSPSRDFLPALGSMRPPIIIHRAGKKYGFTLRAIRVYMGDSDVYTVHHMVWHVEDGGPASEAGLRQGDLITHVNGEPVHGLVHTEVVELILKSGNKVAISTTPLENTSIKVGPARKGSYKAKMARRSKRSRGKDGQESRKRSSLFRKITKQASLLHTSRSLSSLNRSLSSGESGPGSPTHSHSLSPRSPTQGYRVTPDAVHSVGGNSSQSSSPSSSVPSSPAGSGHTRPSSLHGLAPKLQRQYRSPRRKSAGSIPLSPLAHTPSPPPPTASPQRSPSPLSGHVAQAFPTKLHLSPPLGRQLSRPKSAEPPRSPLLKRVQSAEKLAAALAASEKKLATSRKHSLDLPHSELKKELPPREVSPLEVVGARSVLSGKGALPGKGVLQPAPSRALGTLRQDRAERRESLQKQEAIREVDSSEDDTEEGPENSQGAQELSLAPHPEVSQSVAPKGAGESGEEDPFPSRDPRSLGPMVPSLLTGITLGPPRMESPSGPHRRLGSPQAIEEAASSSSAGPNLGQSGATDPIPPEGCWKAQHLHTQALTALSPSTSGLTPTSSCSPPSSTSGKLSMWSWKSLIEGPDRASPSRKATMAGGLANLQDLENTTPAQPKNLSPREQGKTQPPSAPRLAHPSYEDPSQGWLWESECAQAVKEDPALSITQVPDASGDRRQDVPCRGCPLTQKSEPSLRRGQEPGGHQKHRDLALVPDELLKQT

`CC[C@H](C)[C@H](NC(=O)[C@H](CCCCN)NC(=O)[C@@H](NC(=O)[C@H](CO)NC(=O)[C@@H]1CCCN1C(=O)[C@H](Cc1ccccc1)NC(=O)[C@@H](NC(=O)[C@@H](NC(=O)[C@H](CCCNC(=N)N)NC(=O)[C@H](CCC(=O)O)NC(=O)[C@H](CC(C)C)NC(=O)[C@H](CC(C)C)NC(=O)[C@H](CC(C)C)NC(=O)[C@@H](NC(=O)CNC(=O)[C@@H](NC(=O)CCCC[C@@H]1SC[C@@H]2NC(=O)N[C@@H]21)C(C)C)[C@@H](C)O)C(C)C)[C@@H](C)CC)C(C)C)C(=O)N[C@@H](C)C(=O)N[C@H](C(=O)N[C@@H](CC(C)C)C(=O)N[C@H](C(=O)O)C(C)C)[C@@H](C)O` [Adenovirus E4 Type9]: the Classification in test [1] (PDZ KIAA0807(S), PDZ Domain 1, Protein Optimal Conc 5) is 3 (A450 nm 2-3); in test [1] (PDZ KIAA807 (domain not given), PL peptide 10 uM), 4 (A450 nm 3-4); in test [2] (PDZ Mint 1, PDZ Domain 1, 2, PL peptide 10 uM) it was 2 (A450 nm 1-2); in test [2] (PDZ Mint 1, PDZ Domain 2, PL peptide 10 uM), 2 (A450 nm 1-2); in test [3] (Protein Optimal Conc 5), 3 (A450 nm 2-3).

`CSCC[C@H](NC(=O)[C@H](C)NC(=O)[C@H](CCCNC(=N)N)NC(=O)CNC(=O)[C@@H](NC(=O)[C@H](Cc1c[nH]c2ccccc12)NC(=O)[C@H](CCCNC(=N)N)NC(=O)CNC(=O)CCCC[C@@H]1SC[C@@H]2NC(=O)N[C@@H]21)[C@@H](C)O)C(=O)N[C@@H](CO)C(=O)N[C@@H](C)C(=O)N[C@@H](Cc1c[nH]c2ccccc12)C(=O)N[C@@H](CCCCN)C(=O)N1CCC[C@H]1C(=O)N[C@H](C(=O)N[C@@H](CCCNC(=N)N)C(=O)N[C@@H](CCCNC(=N)N)C(=O)N[C@@H](CCC(=O)O)C(=O)N[C@H](C(=O)N[C@@H](CCC(=O)O)C(=O)N[C@H](C(=O)O)C(C)C)[C@@H](C)O)[C@@H](C)O` [HPV E6 #35 (modified)] (Biotin-GRWTGRAMSAWKPTRRETEV-OH; C-terminus assumed): the Classification in test [1] (PDZ KIAA0807(S), PDZ Domain 1, Protein Optimal Conc 0.5) is on record as 5 (A450 nm of 4 more than 2× repeated); in test [1] (setting [4]), 5 (A450 nm of 4 more than 2× repeated); in test [2] (PDZ Mint 1, PDZ Domain 1, 2) it was 1 (A450 nm 0-1); in test [2] (PDZ Mint 1, PDZ Domain 2) it was 2 (A450 nm 1-2); in test [3], 1 (A450 nm 0-1).

In the case of “PYSELNYETSHYPASPDSWV (Biotin-PYSELNYETSHYPASPDSWV) [catenin - delta 2]”, the Classification was 3 (A450 nm 2-3) in test [1] (PDZ KIAA0807(S), PDZ Domain 1); 4 (A450 nm 3-4) in test [1] (PDZ KIAA807 (domain not given)); 5 (A450 nm of 4 more than 2× repeated) in test [2] (PDZ Mint 1, PDZ Domain 1, 2); 3 (A450 nm 2-3) in test [2] (PDZ Mint 1, PDZ Domain 2); 3 (A450 nm 2-3) in test [3].

Regarding `CC(C)C[C@H](NC(=O)[C@H](C)NC(=O)[C@H](CO)NC(=O)CNC(=O)[C@@H](NC(=O)CCCC[C@@H]1SC[C@@H]2NC(=O)N[C@@H]21)[C@@H](C)O)C(=O)N[C@@H](CCC(N)=O)C(=O)N[C@@H](C)C(=O)N[C@@H](Cc1c[nH]c2ccccc12)C(=O)N[C@@H](CCCNC(=N)N)C(=O)N[C@@H](Cc1c[nH]cn1)C(=O)N[C@H](C(=O)N[C@@H](CO)C(=O)N[C@@H](CCCNC(=N)N)C(=O)N[C@@H](CCC(N)=O)C(=O)N[C@@H](C)C(=O)N[C@H](C(=O)N[C@@H](CCC(=O)O)C(=O)N[C@@H](CO)C(=O)N[C@H](C(=O)N[C@H](C(=O)O)C(C)C)[C@@H](C)O)[C@@H](C)O)[C@@H](C)O` [HPV E6 #66 (modified)] (Biotin-TGSALQAWRHTSRQATESTV-OH; C-terminus assumed), the Classification in test [1] (PDZ KIAA0807(S), PDZ Domain 1) is reported as 4 (A450 nm 3-4); in test [1] (setting [4]), 2 (A450 nm 1-2); in test [2] (PDZ Mint 1, PDZ Domain 1, 2), 1 (A450 nm 0-1); in test [2] (PDZ Mint 1, PDZ Domain 2), 1 (A450 nm 0-1); in test [3], 1 (A450 nm 0-1).

As for `CC[C@H](C)[C@H](NC(=O)[C@H](Cc1ccc(O)cc1)NC(=O)[C@H](CC(C)C)NC(=O)[C@H](CCC(N)=O)NC(=O)[C@H](Cc1c[nH]cn1)NC(=O)[C@H](CO)NC(=O)[C@H](C)NC(=O)[C@H](CC(C)C)NC(=O)[C@@H](NC(=O)[C@H](CC(=O)O)NC(=O)[C@H](CCSC)NC(=O)[C@H](Cc1ccccc1)NC(=O)[C@@H]1CCCN1C(=O)[C@H](CCCNC(=N)N)NC(=O)[C@@H](NC(=O)[C@H](CC(C)C)NC(=O)[C@H](CC(N)=O)NC(=O)[C@H](CC(=O)O)NC(=O)[C@@H](NC(=O)[C@H](CO)NC(=O)CCCC[C@@H]1SC[C@@H]2NC(=O)N[C@@H]21)[C@@H](C)O)C(C)C)[C@@H](C)O)C(=O)O` [presenilin-2] (Biotin-STDNLVRPFMDTLASHQLYI-OH; C-terminus assumed), the Classification is reported as 1 (A450 nm 0-1) in test [1] (PDZ KIAA0807(S), PDZ Domain 1); 3 (A450 nm 2-3) in test [2] (PDZ Mint 1, PDZ Domain 1, 2); 5 (A450 nm of 4 more than 2× repeated) in test [3].

Regarding “PPATPSPRLALPAHHNATRL (Biotin-PPATPSPRLALPAHHNATRL) [Na+/Pi cotransporter 2]”, the Classification in test [1] (PDZ KIAA0807(S), PDZ Domain 1) is 5 (A450 nm of 4 more than 2× repeated); in test [1] (setting [4]) it was 5 (A450 nm of 4 more than 2× repeated); in test [2] (PDZ Mint 1, PDZ Domain 2), 1 (A450 nm 0-1); in test [3], 1 (A450 nm 0-1).

Take “ISGTPTSTMVHGMTSSSSVV (Biotin-ISGTPTSTMVHGMTSSSSVV) [Clasp-2]”: the Classification is given as 1 (A450 nm 0-1) in test [1] (setting [4]); 1 (A450 nm 0-1) in test [2] (PDZ Mint 1, PDZ Domain 1, 2); 1 (A450 nm 0-1) in test [3].

Turning to `CC(C)C[C@H](NC(=O)[C@H](CC(C)C)NC(=O)[C@@H](NC(=O)[C@H](CC(=O)O)NC(=O)CCCC[C@@H]1SC[C@@H]2NC(=O)N[C@@H]21)[C@@H](C)O)C(=O)N[C@@H](CC(C)C)C(=O)N[C@H](C(=O)N[C@@H](CCC(=O)O)C(=O)N[C@@H](CC(N)=O)C(=O)N[C@@H](CCC(=O)O)C(=O)NCC(=O)N[C@@H](CC(=O)O)C(=O)N[C@@H](CCCCN)C(=O)N[C@H](C(=O)N[C@@H](CCC(=O)O)C(=O)N[C@@H](CCC(=O)O)C(=O)N[C@@H](CCC(N)=O)C(=O)N[C@H](C(=O)N[C@@H](CO)C(=O)N[C@@H](Cc1ccc(O)cc1)C(=O)N[C@H](C(=O)O)C(C)C)C(C)C)[C@@H](C)O)[C@@H](C)O` [5H2B_HUMAN] (Biotin-DTLLLTENEGDKTEEQVSYV-OH; C-terminus assumed), the Classification in test [1] (PDZ KIAA807) was 1 (A450 nm 0-1); in test [1] (PDZ KIAA0807(S), PDZ Domain 1), 1 (A450 nm 0-1); in test [2] (PDZ Mint 1, PDZ Domain 1, 2) it was 1 (A450 nm 0-1); in test [2] (PDZ Mint 1, PDZ Domain 2) it was 1 (A450 nm 0-1); in test [3] it was 2 (A450 nm 1-2).

Take “ALVLIAFCIIRRRPSAYQAL (Biotin-ALVLIAFCIIRRRPSAYQAL) [CD68]”: the Classification is on record as 5 (A450 nm of 4 more than 2× repeated) in test [1] (PDZ KIAA0807(S), PDZ Domain 1); 1 (A450 nm 0-1) in test [2] (PDZ Mint 1, PDZ Domain 1, 2); 2 (A450 nm 1-2) in test [2] (PDZ Mint 1, PDZ Domain 2); 1 (A450 nm 0-1) in test [3].

The values above are taken from patent publication US20050282743A1, “Molecular interactions in cells” (Arbor Vita Corporation, priority 2001, published 2005).
